Each molecule was assayed against T1, Acetylcholinesterase (Mus musculus, UniProt P21836) (assay: biochemical).
T1 sequence (P21836 whole entry): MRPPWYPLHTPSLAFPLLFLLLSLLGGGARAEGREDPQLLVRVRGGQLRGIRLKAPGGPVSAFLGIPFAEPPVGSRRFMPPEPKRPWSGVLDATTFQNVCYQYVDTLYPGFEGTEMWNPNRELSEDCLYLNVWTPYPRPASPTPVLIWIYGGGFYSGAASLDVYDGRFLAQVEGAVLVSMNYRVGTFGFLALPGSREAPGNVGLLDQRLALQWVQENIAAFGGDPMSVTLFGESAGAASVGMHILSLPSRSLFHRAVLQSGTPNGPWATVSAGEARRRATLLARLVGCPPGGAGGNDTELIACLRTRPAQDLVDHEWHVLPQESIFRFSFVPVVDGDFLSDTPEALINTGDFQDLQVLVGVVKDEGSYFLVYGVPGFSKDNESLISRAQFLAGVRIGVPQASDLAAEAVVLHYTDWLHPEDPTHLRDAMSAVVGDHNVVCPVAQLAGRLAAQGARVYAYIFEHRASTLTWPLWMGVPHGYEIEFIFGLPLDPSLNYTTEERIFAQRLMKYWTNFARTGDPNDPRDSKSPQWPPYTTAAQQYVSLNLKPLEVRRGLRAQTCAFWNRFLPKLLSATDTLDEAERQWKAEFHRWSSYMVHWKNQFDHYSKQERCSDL
Description: Inhibition of Acetylcholinesterase activity in mouse brain homogenate

Compound	IC50 [nM]
COc1cc2c(cc1OC)CC(CC1CCN(Cc3ccccc3)CC1)=C2	4400
COc1cc2c(cc1OC)C(=O)C(CC1CCN(CC3CCCCC3)CC1)C2 (configuration not stated)	8.9
COc1cc2c(cc1OC)C(=O)C(CC1CCN(Cc3ccccc3C)CC1)C2 (configuration not stated)	10
COc1cc2c(cc1OC)C(=O)C(CC1CCN(C(=O)c3ccccc3)CC1)C2 (configuration not stated)	> 10000
COc1cc2c(cc1OC)C(=O)/C(=C/C1CCN(Cc3ccccc3)CC1)C2	13
COc1cc2c(cc1OC)C(=O)C(CN1CCN(Cc3ccccc3)CC1)C2 (configuration not stated)	94
COc1cc2c(cc1OC)C(=O)C(CC1CCN(Cc3cccc([N+](=O)[O-])c3)CC1)C2 (configuration not stated)	4
COc1cc2c(cc1OC)C(=O)C(CC1CCN(CCc3ccccc3)CC1)C2 (configuration not stated)	180
COc1cc2c(cc1OC)C(O)C(CC1CCN(Cc3ccccc3)CC1)C2 (configuration not stated)	300
COc1cc2c(cc1OC)C(=O)/C(=C/CC1CCN(Cc3ccccc3)CC1)C2	150
COc1cc2c(cc1OC)C(=O)C(CC1CCN(Cc3ccc([N+](=O)[O-])cc3)CC1)C2 (configuration not stated)	100
COc1cc2c(cc1OC)C(=O)C(CC1CCN(Cc3cccc(C)c3)CC1)C2 (configuration not stated)	2.7

Reference: ChEMBL document CHEMBL1126449, “Synthesis and anti-acetylcholinesterase activity of 1-benzyl-4-[(5,6-dimethoxy-1-indanon-2-yl)methyl]piperidine hydrochloride (E2020) and related compounds” (Bioorg Med Chem Lett, 1992)
